Key:
Format in all cases: biochemical
Conditions in all cases: recombinant human kinase domain, Caliper mobility shift
[1] = molecular target: JAK3 (Homo sapiens (Human), UniProt P52333); assay: JAK Caliper enzyme assay at 1 mM ATP (JAK3)
Protocol: (§1) Compounds of the invention were evaluated by in vitro methods to determine their respective ability to inhibit the JAK kinases (TYK2, JAK1, JAK2, JAK3).
(§2) The human JAK inhibitory activity was determined by using a microfluidic assay to monitor phosphorylation of a synthetic peptide by the recombinant human kinase domain of each of the four members of the JAK family, JAK1, JAK2, JAK3 and TYK2. […] Each assay condition was optimized for enzyme concentration and room temperature incubation time to obtain a conversion rate of 20% to 30% phosphorylated peptide product. Reactions were terminated by the addition of stop buffer containing EDTA. Utilizing the LabChip 3000 mobility shift technology (Caliper Life Science), each assay reaction was sampled to determine the level of phosphorylation. This technology is separation-based, allowing direct detection of fluorescently labeled substrates and products. Separations are controlled by a combination of vacuum pressure and electric field strength optimized for each peptide substrate.
(§3) JAK Caliper Enzyme Assay at 1 mM ATP
(§4) Compounds were added to a 384-well plate. Reaction mixtures contained 10 mM HEPES, pH 7.4, 10 mM MgCl2, 0.01% BSA, 0.0005% Tween 20, 1 mM ATP and 1 μM peptide substrate. […] The assays were initiated by the addition of 20 nM JAK1, 1 nM JAK2, 1 nM JAK or 1 nM TYK2 enzyme and were incubated at room temperature for three hours for JAK1, 60 minutes for JAK2, 75 minutes for JAK3 or 135 minutes for TYK2. Enzyme concentrations and incubation times were optimized for each new enzyme preps and were modified slightly over time to ensure 20% to 30% phosphorylation. The assays were stopped with 15 μL of 180 mM HEPES, pH 7.4, 20 mM EDTA, and 0.2% Coating Reagent 3. The assay plates were placed on a Caliper Life Science LC3000 instrument, and each well was sampled using appropriate separation conditions to measure the unphosphorylated and phosphorylated peptide.
(§5) The data was collected using the HTS Well Analyzer software from Caliper Life Sciences. The data output for data analysis is the percent product converted calculated on peak height (Equation 1). % product converted=100*((product)/(product+substrate)) Equation 1: […]
(§6) The percent effect at each compound concentration was calculated based on the positive and negative control well contained within each assay plate (Equation 2). […] The negative control wells contained DMSO alone (at the same concentration as the compound wells) that was used to set the baseline activity in the assay (i.e., uninhibited JAK1, JAK2, JAK3 or TYK2). % effect=100*((sample well−negative control)/(positive control-negative control)) Equation 2: The percent effect was plotted against the compound concentration compound.

[2] = molecular target: TYK2 (Homo sapiens (Human), UniProt P29597); assay: JAK Caliper enzyme assay at 1 mM ATP (TYK2)
Protocol: as §1, §2, §3, §4, §5, §6

[3] = molecular target: JAK1 (Homo sapiens (Human), UniProt P23458); assay: JAK Caliper enzyme assay at 1 mM ATP (JAK1)
Protocol: Compounds of the invention were evaluated by in vitro methods to determine their respective ability to inhibit the JAK kinases (TYK2, JAK1, JAK2, JAK3). The human JAK inhibitory activity was determined by using a microfluidic assay to monitor phosphorylation of a synthetic peptide by the recombinant human kinase domain of each of the four members of the JAK family, JAK1, JAK2, JAK3 and TYK2. […] Reactions were terminated by the addition of stop buffer containing EDTA. Utilizing the LabChip 3000 mobility shift technology (Caliper Life Science), each assay reaction was sampled to determine the level of phosphorylation. This technology is separation-based, allowing direct detection of fluorescently labeled substrates and products. Separations are controlled by a combination of vacuum pressure and electric field strength optimized for each peptide substrate. […] Compounds were added to a 384-well plate. […] Enzyme concentrations and incubation times were optimized for each new enzyme preps and were modified slightly over time to ensure 20% to 30% phosphorylation. […] The assay plates were placed on a Caliper Life Science LC3000 instrument, and each well was sampled using appropriate separation conditions to measure the unphosphorylated and phosphorylated peptide. The data was collected using the HTS Well Analyzer software from Caliper Life Sciences. […] The percent effect at each compound concentration was calculated based on the positive and negative control well contained within each assay plate (Equation 2). […] The percent effect was plotted against the compound concentration compound. […] Where max is the maximum asymptote (complete inhibition), min is the minimum asymptote (no inhibition) and s is the slope factor.

[4] = molecular target: JAK2 (Homo sapiens (Human), UniProt O60674); assay: JAK Caliper enzyme assay at 1 mM ATP (JAK2)
Protocol: as §1, §2, §3, §4, §5, §6

Sequence of JAK3 (P52333 822-1111): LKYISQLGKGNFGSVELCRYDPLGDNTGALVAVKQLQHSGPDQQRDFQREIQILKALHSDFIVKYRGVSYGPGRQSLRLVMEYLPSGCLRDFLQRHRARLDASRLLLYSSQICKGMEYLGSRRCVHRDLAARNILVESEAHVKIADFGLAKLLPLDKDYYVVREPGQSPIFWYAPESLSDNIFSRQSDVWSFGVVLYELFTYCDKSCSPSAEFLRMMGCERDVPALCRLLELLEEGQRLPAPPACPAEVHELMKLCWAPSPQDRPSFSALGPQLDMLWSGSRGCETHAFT
Sequence of JAK1 (P23458 875-1153): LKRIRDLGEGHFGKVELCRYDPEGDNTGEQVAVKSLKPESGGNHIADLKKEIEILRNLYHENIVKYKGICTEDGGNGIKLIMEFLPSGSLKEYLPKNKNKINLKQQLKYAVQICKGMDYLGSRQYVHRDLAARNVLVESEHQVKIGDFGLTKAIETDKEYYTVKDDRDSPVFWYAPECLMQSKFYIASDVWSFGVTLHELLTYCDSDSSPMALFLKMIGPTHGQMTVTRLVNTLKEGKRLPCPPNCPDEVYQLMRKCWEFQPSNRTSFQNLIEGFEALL
Sequence of TYK2 (P29597 897-1176): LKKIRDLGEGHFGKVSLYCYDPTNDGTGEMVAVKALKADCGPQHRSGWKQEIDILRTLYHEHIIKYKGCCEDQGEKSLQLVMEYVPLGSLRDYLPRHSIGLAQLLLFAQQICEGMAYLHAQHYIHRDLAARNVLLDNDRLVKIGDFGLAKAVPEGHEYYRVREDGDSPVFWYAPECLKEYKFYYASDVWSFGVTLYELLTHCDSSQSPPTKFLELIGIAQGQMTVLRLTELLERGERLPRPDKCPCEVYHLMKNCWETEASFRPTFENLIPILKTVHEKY
Sequence of JAK2 (O60674 849-1124): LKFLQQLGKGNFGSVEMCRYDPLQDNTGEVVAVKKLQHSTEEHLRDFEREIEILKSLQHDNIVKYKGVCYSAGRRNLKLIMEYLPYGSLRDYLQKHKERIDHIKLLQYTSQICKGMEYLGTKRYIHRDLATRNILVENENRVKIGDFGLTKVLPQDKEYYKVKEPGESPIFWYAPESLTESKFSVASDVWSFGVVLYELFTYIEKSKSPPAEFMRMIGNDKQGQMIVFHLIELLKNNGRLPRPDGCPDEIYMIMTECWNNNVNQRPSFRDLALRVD

IC50 [1]	IC50 [2]	IC50 [3]	IC50 [4]	Structure (SMILES)
> 10 µM	0.062 µM	1.06 µM	0.299 µM	N#CCC1(n2cc(-c3nc(-c4cc(CO)[nH]n4)cn4nccc34)cn2)CN(CC2CC2)C1 [Example 2, 2-(1-(Cyclopropylmethyl)-3-(4-(6-(5-(hydroxymethyl)-1H-pyrazol-3-yl)pyrazolo[1,5-a]pyrazin-4-yl)-1H-pyrazol-1-yl)azetidin-3-yl)acetonitrile]
	0.064 µM	2.29 µM		CCN1CC(CC#N)(n2cc(-c3nc(-c4cc(CO)[nH]n4)cn4nccc34)cn2)C1 [Example 3, 2-(1-Ethyl-3-(4-(6-(5-(hydroxymethyl)-1H-pyrazol-3-yl)pyrazolo[1,5-a]pyrazin-4-yl)-1H-pyrazol-1-yl)azetidin-3-yl)acetonitrile]
> 10 µM	0.055 µM	1.34 µM	0.141 µM	Cn1cc(-c2cn3nccc3c(-c3cnn(C4(CC#N)CCC4)c3)n2)cn1 [Example 4, 2-(1-(4-(6-(1-Methyl-1H-pyrazol-4-yl)pyrazolo[1,5-a]pyrazin-4-yl)-1H-pyrazol-1-yl)cyclobutyl)acetonitrile]
> 10 µM	0.035 µM	1.92 µM		CO[C@H]1C[C@](CC#N)(n2cc(-c3nc(-c4cc(NC(C)=O)[nH]n4)cn4nccc34)cn2)C1 [Example 5, N-(3-(4-(1-((1r,3s)-1-(Cyanomethyl)-3-methoxycyclobutyl)-1H-pyrazol-4-yl)pyrazolo[1,5-a]pyrazin-6-yl)-1H-pyrazol-5-yl)acetamide]
> 9.28 µM	0.011 µM	0.265 µM		Cn1cc(-c2cn3nccc3c(-c3cnn(C4(CC#N)CN(S(C)(=O)=O)C4)c3)n2)cn1 [Example 8, 2-(3-(4-(6-(1-Methyl-1H-pyrazol-4-yl)pyrazolo[1,5-a]pyrazin-4-yl)-1H-pyrazol-1-yl)-1-(methylsulfonyl)azetidin-3-yl)acetonitrile]
> 10 µM	0.008 µM	0.185 µM	0.049 µM	Cn1cc(-c2cn3nccc3c(-c3cnn(C4(CC#N)CN(S(=O)(=O)C5CC5)C4)c3)n2)cn1 [Example 9, 2-(1-(Cyclopropylsulfonyl)-3-(4-(6-(1-methyl-1H-pyrazol-4-yl)pyrazolo[1,5-a]pyrazin-4-yl)-1H-pyrazol-1-yl)azetidin-3-yl)acetonitrile]
> 10 µM	0.58 µM	5.71 µM	1.6 µM	CCC(=O)N1CC(CC#N)(n2cc(-c3nc(-c4cnn(C)c4)cn4nccc34)cn2)C1 [Example 10, 2-(3-(4-(6-(1-Methyl-1H-pyrazol-4-yl)pyrazolo[1,5-a]pyrazin-4-yl)-1H-pyrazol-1-yl)-1-propionylazetidin-3-yl)acetonitrile]
> 6.17 µM	0.008 µM	0.273 µM	0.038 µM	Cn1cc(-c2cn3nccc3c(-c3cnn([C@]4(CC#N)C[C@H](CC#N)C4)c3)n2)cn1 [Example 11, 2,2′-((1s,3s)-1-(4-(6-(1-Methyl-1H-pyrazol-4-yl)pyrazolo[1,5-a]pyrazin-4-yl)-1H-pyrazol-1-yl)cyclobutane-1,3-diyl)diacetonitrile]
> 10 µM	0.149 µM	3.23 µM		Cn1cc(-c2cn3nccc3c(-c3cnn([C@]4(CC#N)C[C@H](O)C4)c3)n2)cn1 [Example 13, 2-((1s,3r)-3-Hydroxy-1-(4-(6-(1-methyl-1H-pyrazol-4-yl)pyrazolo[1,5-a]pyrazin-4-yl)-1H-pyrazol-1-yl)cyclobutyl)acetonitrile]
> 10 µM	0.081 µM	1.06 µM		Cn1cc(-c2cn3nccc3c(-c3cnn([C@]4(CC#N)C[C@@H](O)C4)c3)n2)cn1 [Example 14, 2-((1r,3s)-3-Hydroxy-1-(4-(6-(1-methyl-1H-pyrazol-4-yl)pyrazolo[1,5-a]pyrazin-4-yl)-1H-pyrazol-1-yl)cyclobutyl)acetonitrile]
> 9.12 µM		1.5 µM	0.228 µM	CO[C@H]1C[C@](CC#N)(n2cc(-c3nc(-c4cnn(C)c4)cn4nccc34)cn2)C1 [Example 15, 2-((1r,3s)-3-Methoxy-1-(4-(6-(1-methyl-1H-pyrazol-4-yl)pyrazolo[1,5-a]pyrazin-4-yl)-1H-pyrazol-1-yl)cyclobutyl)acetonitrile]
10 µM		0.664 µM	0.099 µM	CO[C@H]1C[C@@](CC#N)(n2cc(-c3nc(-c4cnn(C)c4)cn4nccc34)cn2)C1 [Example 16, 2-((1s,3r)-3-Methoxy-1-(4-(6-(1-methyl-1H-pyrazol-4-yl)pyrazolo[1,5-a]pyrazin-4-yl)-1H-pyrazol-1-yl)cyclobutyl)acetonitrile]
10 µM	0.035 µM	1.73 µM	0.205 µM	C[C@H]1N(CC(F)(F)F)C[C@]1(CC#N)n1cc(-c2nc(-c3cnn(C)c3)cn3nccc23)cn1 [Example 17, 2-((2R,3S)-2-Methyl-3-(4-(6-(1-methyl-1H-pyrazol-4-yl)pyrazolo[1,5-a]pyrazin-4-yl)-1H-pyrazol-1-yl)-1-(2,2,2-trifluoroethyl)azetidin-3-yl)acetonitrile]
10 µM	0.047 µM	1.08 µM	0.206 µM	Cn1cc(-c2cn3nccc3c(-c3cnn([C@]4(CC#N)C[C@@H](c5ccn[nH]5)C4)c3)n2)cn1 [Example 18, 2-((1r,3r)-1-(4-(6-(1-Methyl-1H-pyrazol-4-yl)pyrazolo[1,5-a]pyrazin-4-yl)-1H-pyrazol-1-yl)-3-(1H-pyrazol-5-yl)cyclobutyl)acetonitrile]
> 10 µM	0.034 µM	1.29 µM	0.109 µM	Cc1nn([C@]2(CC#N)C[C@@H](C#N)C2)cc1-c1nc(-c2cnn(C)c2)cn2nccc12 [Example 21, (1r,3r)-3-(Cyanomethyl)-3-(3-methyl-4-(6-(1-methyl-1H-pyrazol-4-yl)pyrazolo[1,5-a]pyrazin-4-yl)-1H-pyrazol-1-yl)cyclobutane-1-carbonitrile]
> 10 µM	0.03 µM	2.54 µM	0.127 µM	Cn1cc(-c2cn3nccc3c(-c3cnn([C@]4(CC#N)C[C@@H](C#N)C4)c3)n2)c(CO)n1 [Example 22, (1r,3r)-3-(Cyanomethyl)-3-(4-(6-(3-(hydroxymethyl)-1-methyl-1H-pyrazol-4-yl)pyrazolo[1,5-a]pyrazin-4-yl)-1H-pyrazol-1-yl)cyclobutane-1-carbonitrile]
> 10 µM	0.025 µM	3.55 µM	0.432 µM	CO[C@H]1C[C@](CC#N)(n2cc(-c3nc(-c4cc(N)n(C)n4)cn4nccc34)cn2)C1 [Example 24, 2-((1r,3s)-1-(4-(6-(5-Amino-1-methyl-1H-pyrazol-3-yl)pyrazolo[1,5-a]pyrazin-4-yl)-1H-pyrazol-1-yl)-3-methoxycyclobutyl)acetonitrile]

Structure (SMILES)	IC50 [1]	IC50 [2]	IC50 [3]	IC50 [4]
CNC(=O)c1cc(-c2cn3nccc3c(-c3cnn([C@]4(CC#N)C[C@@H](OC)C4)c3)n2)[nH]n1 [Example 6, 5-(4-(1-((1r,3s)-1-(Cyanomethyl)-3-methoxycyclobutyl)-1H-pyrazol-4-yl)pyrazolo[1,5-a]pyrazin-6-yl)-N-methyl-1H-pyrazole-3-carboxamide]	> 10 µM			0.5 µM

Reference: patent US10144738B2, “Pyrazolo[1,5-A]PYRAZIN-4-YL derivatives” (Pfizer Inc., priority 2016, dated 2018)
